Experimental data from the NIST ThermoML archive (doi:10.1016/j.jct.2016.05.011).
± gives the expanded uncertainty stated by the source.

Experiments:
[1] = refractive index (Na D-line) (dimensionless); conditions: 293.15 K; 101.33 kPa; Liquid; Standard Abbe refractometry
[2] = Liquid; for mass density: 293.15 K, 101.33 kPa, Vibrating tube method; for Normal boiling temperature: Ebulliometric method (Recirculating still)

refractive index [1] | mass density [2] [kg/m3] | Normal boiling temperature [2] [°C] | Compound
1.3283 ± 0.0004 | 791.1 ± 1 | 64.41 ± 0.3 | CO [methanol]
1.3439 ± 0.0004 | 782.1 ± 1 | 81.44 ± 0.3 | CC#N [acetonitrile]
